The results in this text go back to ChEMBL document CHEMBL1138221, “Synthesis and evaluation of multisubstrate bicyclic pyrimidine nucleoside inhibitors of human thymidine phosphorylase” (J Med Chem, 2006).

The data set is described as follows: Stability in acidic buffer at pH 1.0 in 37 degC. Particulars: for Stability: buffer. The class given is physicochemical.

By half-life is commonly meant how long it takes for the measured level to halve. The low end stands for rapid decline, the high end for slow decline.

Consider `Cc1cn([C@@H]2O[C@H](CO)[C@H]3O[C@@H](CP(=O)(O)O)C[C@H]32)c(=O)[nH]c1=O`, for which the Stability result is “Stable”.

Compound `Cc1cn([C@@H]2O[C@H](CO)[C@H]3O[C@@H](CP(=O)(O)O)O[C@H]32)c(=O)[nH]c1=O` gave a half-life (acidic buffer) of 4.08 days.

For `Cc1cn([C@@H]2O[C@H](CO)[C@H]3C[C@@H](CP(=O)(O)O)O[C@H]32)c(=O)[nH]c1=O`, the Stability result is “Stable”.

Regarding `Cc1cn([C@@H]2O[C@H](CO)[C@H]3C[C@H](CP(=O)(O)O)O[C@H]32)c(=O)[nH]c1=O`, the Stability result is on record as “Stable”.
